Assay results from PMC9727977, “Pharmacokinetics and pharmacodynamics of bioactive compounds in Penyanqing preparation in THP-1 inflammatory cells induced by Lipopolysaccharide” (BMC Complementary Medicine and Therapies, 2022).
Where two headings read alike, the source gives them in different places.

Experiments:
[1] = Pharmacokinetics of six compounds in rat plasma after oral administration of PYQ (HPLC-MS/MS); assay type: in vivo, Sprague–Dawley rats; conditions: for AUC(0-t) / AUC(0-∞) / AUC(0-inf): non-compartmental; for CL/F: n = 6, read-out: CLz/F (converted); for Vd/F: n = 6, read-out: Vz/F; for MRT: read-out: mean residence time (MRT)
Protocol: Animal experiments referred to our previous manuscript. Female Sprague–Dawley rats (n = 10), weighing 200 ± 20 g, were purchased from the Experimental Animal Center of Southern Medical University (Guangzhou, China). These rats were kept adaptively for one week before the experiment, with a temperature of 23 ± 2 ℃, humidity of 40 ± 5%, 12 h light/dark cycle, and random-fed with water and food available. The rats were fasted overnight before administration.
In our previous study, three different doses (5, 10, and 20 mL/kg/day) of PYQ were used to explore the pharmacodynamic effects of it. According to the clinical dose, the PYQ was orally administered to rats at a dose of 8 mL/kg in this experiment. The plasma of 500 µL was obtained via the retinal venous plexus at 0.083, 0.25, 0.5, 0.75, 1, 2, 4, 8, 12 and 24 h after gavage administration. Then all samples were centrifuged at 4 ℃ for 5 min at 8,000 rpm, and were stored at -80 ℃ in refrigerator until further analysis.
For the pharmacokinetic study of PRO, PE, AST, FE, and CH, 100 µL plasma sample was mixed with 10 µL internal standard (IS, 2 µg/mL naringin), and 700 µL methanol was added for protein sedimentation. The mixture was vortexed for 6 min and centrifuged at 13, 000 rpm for 15 min at 4 ℃. Next, the supernatant was dried in a vacuum drying oven and vortexed with 100 µL of 50% methanol for 6 min, and then the mixture was centrifuged at 13, 000 rpm for 30 min at 4 ℃, and the supernatant was filtered by 0.22 µM filter membrane for HPLC–MS/MS analysis.
For the pharmacokinetic study of SAB, 100 µL plasma was mixed with 10 µL IS (2 µg/mL naringin) and then acidified by mixing with 25 µL of 20% hydrochloric acid. After addition of 1 mL of ethyl acetate, the mixture was vortexed for 6 min and centrifuged at 13,000 rpm for 15 min. The organic layer was transferred to an Eppendorf tube and dried in a vacuum drying oven. The residue was dissolved in 100 µL methanol. After centrifugation at 13,000 rpm for 30 min, the supernatant was filtered by 0.22 µM filter membrane for HPLC–MS/MS analysis.
In this study, the negative ESI multiple reaction monitoring (MRM) mode of AB Sciex API-4000 LC–MS/MS Systems was used to measure SAB, PRO, PE, AST, FE, and CH in rat plasma, respectively. The following setups of the analyzers were used: the temperatures were all 500 ℃; GS1, 55 psi; GS2, 55 psi; curtain gas, 10 psi.
For the chromatographic analysis of PRO, PE, AST, FE, and CH, the chromatographic column used was Agilent Poroshell 120 EC-C18 (100 mm × 3.0 mm, 2.7 µm), and the column temperature was maintained at 25 ℃. The mobile phase was consisted of A (methanol) and B (0.2% aqueous formic acid), and the flow rate was 0.4 mL/min. The gradient elution was carried out as follows: 10% A at 0 ~ 1 min, 10% A-95% A at 1 ~ 2 min, 95% A at 2 ~ 5 min, 95% A-10% A at 5 ~ 5.1 min, 10% A at 5.1 ~ 6 min. 5 µL sample was injected into the system for analysis.
For the chromatographic analysis of SAB, the chromatographic column used was ZORBAX SB-C18 (100 mm × 2.1 mm, 3.5 µm), and the column temperature was maintained at 25 ℃. The mobile phase was consisted of A (methanol) and B (0.2% aqueous formic acid), and the flow rate was 0.4 mL/min. The gradient elution was carried out as follows: 30% A at 0 ~ 0.5 min, 30% A-90% A at 0.5 ~ 1 min, 90% A at 1 ~ 4.5 min, 90% A-30% A at 4.5 ~ 4.6 min, 30% A at 4.6 ~ 6 min. 5 µL sample was injected into the system for analysis.
The pharmacokinetic parameters were calculated by non-compartmental model of the DAS 2.0 software package. The data were presented as mean ± standard deviation (SD). Statistical calculations were performed using SPSS statistical software, and a value of p < 0.05 was denoted statistically significant difference.

[2] = Stability of the analytes in rat plasma QC samples under different storage conditions; assay type: in vitro ADME
Protocol: QC samples were […], 50, 125, 400 ng/mL for FE, 20, 100, 400 ng/mL for PRO, 100, 200, 500 ng/mL for CH, 100, 200, 500 ng/mL for PE, 200, 400, 800 ng/mL for SAB respectively. All the stock solutions, working solutions and QC samples were stored at 4 ℃ until use. […] The stability of all QC samples was determined by the freshly calibration curve.

[3] = PYQ orally 8 mL/kg, mean ± SD, n = 6
[4] = high QC level, nominal ng/mL: AST 500, FE 400, PRO 400, CH 500, PE 500, SAB 800, n = 6
[5] = low QC level, nominal ng/mL: AST 100, FE 50, PRO 20, CH 100, PE 100, SAB 200, n = 6
[6] = middle QC level, nominal ng/mL: AST 200, FE 125, PRO 100, CH 200, PE 200, SAB 400, n = 6
[7] = female, Sprague-Dawley, po, PYQ orally 8 mL/kg, mean ± SD, n = 6
[8] = female, Sprague-Dawley, po, PYQ orally 8 mL/kg, mean ± SD
[9] = female, Sprague-Dawley, po, PYQ orally 8 mL/kg, mean ± SD, n = 6, read-out: Cmax
[10] = female, Sprague-Dawley, po, PYQ orally 8 mL/kg, mean ± SD, n = 6, read-out: AUC(0-t)
[11] = female, Sprague-Dawley, po, after PYQ administration
[12] = female, Sprague-Dawley, po, PYQ orally 8 mL/kg, mean ± SD, n = 6, read-out: tmax

| half-life [1, 7] [h] | CL/F [1, 8] [mL/min/kg] | Cmax [1, 9] [ng/mL] | Vd/F [1, 8] [L/kg] | AUC(0-inf) [1, 7] [ng·h/mL] | AUC(0-t) [1, 10] [ng·h/mL] | MRT [1, 11] [h] | Molecule | Cmax [1, 3] [ng/mL] | Tmax [1, 3] [h] | t1/2 [1, 3] [h] | AUC(0-∞) [1, 3] [ng·h/mL] | In 56 ℃ for 1 h measured value [2, 4] | Room temperature 24 h measured value [2, 4] | Three freeze-thaw cycles measured value [2, 4] | In 56 ℃ for 1 h measured value [2, 5] | Room temperature 24 h measured value [2, 5] | Three freeze-thaw cycles measured value [2, 5] | In 56 ℃ for 1 h measured value [2, 6] | Room temperature 24 h measured value [2, 6] | Three freeze-thaw cycles measured value [2, 6] | also measured |
| --- | --- | --- | --- | --- | --- | --- | --- | --- | --- | --- | --- | --- | --- | --- | --- | --- | --- | --- | --- | --- | --- |
| 0.9 ± 0.02 | 230 | 1200 ± 150 | 17.9 ± 3.28 | 1480 ± 240 | 1430 ± 230 | ≤ 3 | COc1cc(/C=C/C(=O)O)ccc1O [FE, ferulic acid] | – | 0.25 ± 0 | – | – | 399.13 ± 3.26 | 403.59 ± 7.84 | 400.59 ± 6.95 | 48.33 ± 2.76 | 49.14 ± 2.35 | 49.41 ± 1.85 | 123.42 ± 1.76 | 122.72 ± 2.65 | 124.36 ± 2.46 | – |
| 3.42 ± 0.34 | 159 | 2270 ± 350 | 45.4 ± 6.31 | 2090 ± 200 | 2080 ± 200 | ≤ 3 | C[C@@H]1O[C@@H](O[C@H]2C(=O)c3c(O)cc(O)cc3O[C@@H]2c2ccc(O)c(O)c2)[C@H](O)[C@H](O)[C@H]1O [AST, astilbin] | – | – | – | – | 495.21 ± 8.43 | 498.07 ± 3.95 | 497.15 ± 6.61 | 98.46 ± 2.77 | 99.68 ± 2.31 | 97.89 ± 4.06 | 194.85 ± 6.53 | 199.01 ± 3.99 | 193.37 ± 7.61 | Tmax [1, 12]: 0.25 h |
| 1.86 ± 0.21 | 356 | – | 57.2 ± 7.48 | – | 920 ± 60 | ≤ 3 | O=C(/C=C/c1ccc(O)c(O)c1)O[C@@H]1C[C@](O)(C(=O)O)C[C@@H](O)[C@H]1O [CH, chlorogenic acid] | 1370 ± 60 | – | – | 940 ± 90 | 489.60 ± 8.91 | 499.00 ± 6.02 | 485.90 ± 9.73 | 97.22 ± 3.31 | 99.91 ± 2.94 | 98.55 ± 2.93 | 195.56 ± 7.88 | 200.03 ± 9.56 | 191.77 ± 8.91 | – |

Further lines, the molecule ahead of its results:

| Molecule | half-life [1, 7] [h] | CL/F [1, 8] [mL/min/kg] | Cmax [1, 9] [ng/mL] | Vd/F [1, 8] [L/kg] | AUC(0-inf) [1, 7] [ng·h/mL] | AUC(0-t) [1, 10] [ng·h/mL] | MRT [1, 11] [h] | Cmax [1, 3] [ng/mL] | Tmax [1, 3] [h] | t1/2 [1, 3] [h] | AUC(0-∞) [1, 3] [ng·h/mL] | In 56 ℃ for 1 h measured value [2, 4] | Room temperature 24 h measured value [2, 4] | Three freeze-thaw cycles measured value [2, 4] | In 56 ℃ for 1 h measured value [2, 5] | Room temperature 24 h measured value [2, 5] | Three freeze-thaw cycles measured value [2, 5] | In 56 ℃ for 1 h measured value [2, 6] | Room temperature 24 h measured value [2, 6] | Three freeze-thaw cycles measured value [2, 6] | also measured |
| --- | --- | --- | --- | --- | --- | --- | --- | --- | --- | --- | --- | --- | --- | --- | --- | --- | --- | --- | --- | --- | --- |
| salvianolic acid B [SAB] | – | – | – | – | – | – | – | 1590 ± 330 | 0.29 ± 0.10 | 7.60 ± 3.34 | 3700 ± 460 | 791.11 ± 5.98 | 792.27 ± 3.94 | 790.71 ± 3.52 | 196.22 ± 3.40 | 208.88 ± 8.46 | 194.10 ± 8.56 | 395.20 ± 10.70 | 391.06 ± 6.16 | 388.99 ± 6.75 | CLz/F [1, 3]: 91.3 ± 11.3 mL/min/kg; Vz/F [1, 3]: 59.83 ± 25.48 L/kg; AUC(0-t) [1, 3]: 3400 ± 450 ng·h/mL; mean residence time (MRT) ([1]; after PYQ administration): 5.67 ± 0.66 h |
| O=Cc1ccc(O)c(O)c1 [PRO, protocatechualdehyde] | 0.93 ± 0.06 | 310 | 1430 ± 220 | 24.9 ± 1.96 | 1080 ± 70 | 1050 ± 60 | ≤ 3 | – | – | – | – | 394.26 ± 8.01 | 398.27 ± 4.21 | 395.66 ± 7.14 | 19.88 ± 0.43 | 20.81 ± 0.85 | 20.62 ± 1.06 | 98.21 ± 2.33 | 100.34 ± 1.48 | 97.77 ± 2.49 | Tmax ([1]; female, Sprague-Dawley, in vivo, po, PYQ orally 8 mL/kg, mean ± SD, n = 6, read-out: tmax): 0.25 h |
| C[C@@]12C[C@@]3(O)O[C@@H](O1)[C@]1(COC(=O)c4ccccc4)[C@H]3C[C@@]12O[C@@H]1O[C@H](CO)[C@@H](O)[C@H](O)[C@H]1O [PE, paeoniflorin] | – | 153 | 2040 ± 590 | 31.3 ± 4.08 | 2220 ± 310 | 2210 ± 310 | ≤ 3 | – | – | 2.37 ± 0.20 | – | 495.87 ± 6.50 | 499.23 ± 2.58 | 492.85 ± 7.60 | 95.32 ± 1.06 | 99.44 ± 2.43 | 99.68 ± 2.83 | 196.25 ± 4.08 | 199.64 ± 2.59 | 197.55 ± 3.60 | Tmax [1, 12]: 0.25 h |
